In patent EP0434979B1, “Peptide derivatives useful as antagonists of bombesin and gastrin-releasing peptide” (MERRELL DOW PHARMACEUTICALS INC., priority 1989, dated 1991):
Read-outs that look alike come from different tables or passages of the source. Where a SMILES comes first, the peptide text is derived from it. [ ]: non-standard residue; d: D form. The star is where a group is joined. Pheψ(CH2S)LeuNH2 = CC(C)C[C@H](SC[C@H](Cc1ccccc1)N*)C(N)=O; pGlu = O=C1CC[C@@H](C(=O)O)N1

Tests used:
bombesin/GRP receptor [1] = target: T1, bombesin/GRP receptor (Mus musculus, UniProt P21729); test: Competition at the receptor for iodinated GRP (binding to murine pancreatic membranes); design: species or system mice
T1 construct: Pancreata from mice were pooled and chopped at 350 µm with a tissue chopper; from tissue; host or cells: chopped mouse pancreas
T1 sequence (P21729 whole entry): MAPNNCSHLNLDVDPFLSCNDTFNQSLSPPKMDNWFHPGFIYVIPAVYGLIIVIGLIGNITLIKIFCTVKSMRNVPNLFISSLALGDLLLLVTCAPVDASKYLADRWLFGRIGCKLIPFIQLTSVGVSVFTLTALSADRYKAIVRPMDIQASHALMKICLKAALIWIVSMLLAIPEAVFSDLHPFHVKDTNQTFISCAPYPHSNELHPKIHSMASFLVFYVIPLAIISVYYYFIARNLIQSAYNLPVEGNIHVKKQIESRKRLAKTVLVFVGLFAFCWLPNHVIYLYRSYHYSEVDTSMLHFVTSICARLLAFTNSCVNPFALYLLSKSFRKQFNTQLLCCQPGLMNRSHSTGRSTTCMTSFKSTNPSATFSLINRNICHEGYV
Protocol: The pancreata from one or more mice were pooled, minced, and homogenized in 50 mM HEPES (pH 7.4) containing 120 mM NaCl and 5 mM KCl at 4°C and centrifuged at 37,500 X g for 15 minutes. The pellet was resuspended in 50 mM HEPES (pH 7.4) containing 10 mM EDTA and 300 mM KCl and incubated for 30 minutes at 4°C. The suspension was centrifuged as above and the pellet was washed two times in 50 mM HEPES (pH 7.4) containing protease inhibitors (10 µM phenylmethylsulfonyl fluoride, 1 µM thiorphan, 40 µg/ml bacitracin, 10mM iodoacetimide and 4 µg/ml leupeptin), and again centrifuged. The tissue was then resuspended in incubation buffer (1ml per 4 mg pancreas) and incubated for 15 minutes at room temperature, then 250 µl was added to each assay tube to commence the assay. […] The assay was allowed to proceed to equilibrium for 90 minutes at room temperature. After this time, the contents of each tube was rapidly filtered over Whatman GF/B filters presoaked in 0.1% polyethyleneimine and the filters were rapidly washed three times with ice-cold 50 mM HEPES (pH 7.4). Filter-bound radioactivity was quantitated in a gamma counter. […] Affinity and maximal binding were calculated with Ligand (Biosoft, Cambridge, UK) (Figure 1 and Figure 2).
Binding was assayed in triplicate using 0.1 […] and the indicated concentrations of peptide. The abscissa (x-axis) logarithmically indicates the concentration of agonists or antagonist of the GRP receptor.

bombesin/GRP receptor [2] = target: T1, bombesin/GRP receptor; test: Phosphatidylinositol (PI) turnover in chopped murine pancreas, alone (agonism) or before GRP (antagonism); format: cell-based, mice; design: key to PI Turnover Agonist / PI Turnover Antag.: "+" indicates activity; "-" indicates no activity; conditions: for PI Turnover Antag.: ability to block GRP-stimulated PI turnover, pretreatment with 1 uM potential antagonist; for PI Turnover Antag. / PI Turnover Agonist: murine pancreas; for PI Turnover Agonist: ability to stimulate PI turnover
Protocol: Pancreata from mice were pooled and chopped at 350 µm with a tissue chopper. The chopped tissue was washed twice with Krebs-Hepes buffer, then incubated for 30 minutes in 37°C Krebs-Hepes buffer with fresh buffer after 15 minutes. The tissue was then incubated in this buffer containing 100-200 µCi of ³H-inositol at 37°C for 1 hour. The tissue was then washed twice and incubated for another 30 minutes in Krebs-Hepes buffer (containing 10 mM Li⁺) at 37°C with fresh buffer change after 15 minutes. Portions of the tissue mass (approximately 10 mg per assay tube) were then placed in Li⁺ buffer with protease inhibitors, (40 µg/ml bacitracin,4 µg/ml leupeptin, 4 µg/ml chymostatin, 20 µg/ml thiorphan), 0.1% BSA, and then 0.1-1000 nM peptide was added in 25 µl in a final volume of 250 µl. […] After 60 minutes at room temperature, the phosphatidylinositol turnover was terminated by the addition of 940 µl chloroform:methanol (1:2), followed by 310 µl chloroform, followed by 310 µl water. Each tube was then vortexed for 5 seconds and then centrifuged at 2500 x g for 8 minutes to separate the phases. 900 µl of the top (aqueous) phase was then mixed with 2.1 ml water and loaded onto a 0.5 ml Biorad AG-1X8 (formate) ion exchange column. 50 µl of the bottom phase (chloroform) was withdrawn from each tube and placed in a counting vial, dried, and counted in scintillation fluid. The material on the columns was washed in order with: 1) 10 ml of water 2) 5 ml of 5 mM disodium tetraborate/60 mM sodium formate 3) 10 ml of 1 M ammonium formate in 0.1 M formic acid. The final (third) wash was collected and one ml was mixed with 10 ml of Bio-Safe scintillant and counted. The ratio of these counts (total inositol phosphates) to the corresponding organic phase counts was then calculated for each sample. The ratios in the presence of test compound and/or standards were then compared to the ratios for control tubes (i.e., no stimulating agonist). Dose-response lines were constructed and the abilities of test compounds to stimulate or to inhibit GRP induced phosphatidylinositol turnover were determined by graphical analysis or with the aid of a computer program and are illustrated in Figures 3 and 4.
The abscissa (x-axis) logarithmically indicates the concentration of peptide present. The ordinate (y-axis) indicates the observed PI turnover as a percentage of control. Values are mean ± standard error of triplicate determinations; where not shown, the errors are ≤the size of the data points.
Figure 4 illustrates the ability of (Phe₁₃[CH₂s]Leu₁₄)bombesin to antagonize GRP-induced PI turnover in murine pancreas (Example 2). The abscissa (x-axis) logarithmically indicates the concentration of peptide present. The ordinate (y-axis) indicates the observed PI turnover as a percentage of control. […] Data are the mean ± standard error of triplicate determinations; where not shown, the errors are ≤ the size of the data points.

[3] = Kd (nM), receptor affinity, competition for iodinated GRP binding, murine pancreatic membranes
[4] = LIGAND analysis, 0.1 nM iodinated GRP, triplicate, murine pancreatic membranes (Figure 2), read-out: Kd

CC(C)C[C@@H](C(N)=O)[S+]([O-])C[C@H](Cc1ccccc1)NC(=O)[C@H](Cc1c[nH]cn1)NC(=O)CNC(=O)[C@@H](NC(=O)[C@H](C)NC(=O)[C@H](Cc1c[nH]c2ccccc12)NC(=O)[C@H](CCC(N)=O)NC(=O)[C@@H]1CCC(=O)N1)C(C)C (single isomer, unassigned) [pQ Q W A V G H FΨ[CH₂S(O)]^IIL#]
Kd (bombesin/GRP receptor [1]; [3]): 1 nM

CCCC[C@H](SC[C@H](Cc1ccccc1)NC(=O)[C@H](Cc1c[nH]cn1)NC(=O)CNC(=O)[C@@H](NC(=O)[C@H](C)NC(=O)[C@H](Cc1c[nH]c2ccccc12)NC(=O)[C@H](CCC(N)=O)NC(=O)[C@@H]1CCC(=O)N1)C(C)C)C(N)=O [pQ Q W A V G H FΨ [CH₂S]Z#, pGlu-Gln-Trp-Ala-Val-Gly- His-Phe Ψ(CH₂S]Nle-NH₂]
Kd (bombesin/GRP receptor [1]; [3]): 4 nM

CC(C)C[C@H](NC(=O)[C@H](CCCNC(=N)N)NC(=O)[C@H](CCC(N)=O)NC(=O)[C@@H]1CCC(=O)N1)C(=O)NCC(=O)N[C@@H](CC(N)=O)C(=O)N[C@@H](CCC(N)=O)C(=O)N[C@@H](Cc1c[nH]c2ccccc12)C(=O)N[C@@H](C)C(=O)N[C@H](C(=O)NCC(=O)N[C@@H](Cc1c[nH]cn1)C(=O)N[C@H](CS[C@@H](CC(C)C)C(N)=O)Cc1ccccc1)C(C)C [pQ Q R L G N Q W A V G H FΨ[CH₂S]L#] ([pGlu]QRLGNQWAVGH-{Pheψ(CH2S)LeuNH2})
stimulation of phosphatidylinositol (PI) turnover (agonist activity) (bombesin/GRP receptor [2]; PI turnover as percentage of control, dose-response, triplicate (Figure 3)): no agonist activity
PI Turnover Antag. (bombesin/GRP receptor [2]): +
PI Turnover Agonist (bombesin/GRP receptor [2]): -
antagonism of GRP-induced PI turnover (bombesin/GRP receptor [2]; preincubation for 30 minutes with 1000 nM peptide, then 1-1000 nM GRP, murine pancreas (Figure 4)): reduces the stimulation of PI turnover
Kd (bombesin/GRP receptor [1]; [4]): 3 nM
Kd (bombesin/GRP receptor [1]; receptor affinity, competition for iodinated GRP binding, murine pancreatic membranes, read-out: Kd): 3 nM

CC(C)C[C@H](NC(=O)[C@H](Cc1ccccc1)NC(=O)[C@H](Cc1c[nH]cn1)NC(=O)CNC(=O)[C@@H](NC(=O)[C@H](C)NC(=O)[C@H](Cc1c[nH]c2ccccc12)NC(=O)[C@H](CCC(N)=O)NC(=O)[C@H](CC(N)=O)NC(=O)CNC(=O)[C@H](CC(C)C)NC(=O)[C@H](CCCNC(=N)N)NC(=O)[C@H](CCC(N)=O)NC(=O)[C@@H]1CCC(=O)N1)C(C)C)C(N)=O [(Phe₁₃Leu₁₄) bombesin, reference compound] ([pGlu]QRLGNQWAVGHFL-NH2)
Kd (bombesin/GRP receptor [1]; [4]): 0.1 nM

CC(=O)N[C@H](Cc1ccccc1)C(=O)N[C@@H](CCC(N)=O)C(=O)N[C@@H](Cc1c[nH]c2ccccc12)C(=O)N[C@@H](C)C(=O)N[C@H](C(=O)N[C@H](C)C(=O)N[C@@H](Cc1c[nH]cn1)C(=O)N[C@H](CS[C@@H](CC(C)C)C(N)=O)Cc1ccccc1)C(C)C [Acf Q W A V a H FΨ[CH₂S]L#, Ac-D-Phe-Gln-Trp-Ala-Val-D-Ala-His-PheΨ[CH₂S]Leu-NH₂] (Ac-[dF]QWAV[dA]H-{Pheψ(CH2S)LeuNH2})
PI Turnover Antag. (bombesin/GRP receptor [2]): +
PI Turnover Agonist (bombesin/GRP receptor [2]): -

CC(C)C[C@H](SC[C@H](Cc1ccccc1)NC(=O)[C@H](Cc1c[nH]cn1)NC(=O)CNC(=O)[C@@H](NC(=O)[C@H](C)NC(=O)[C@H](Cc1c[nH]c2ccccc12)NC(=O)[C@H](CCC(N)=O)NC(=O)[C@@H]1CCC(=O)N1)C(C)C)C(N)=O [pQ Q W A V G H FΨCH₂S]L#]
Kd (bombesin/GRP receptor [1]; [3]): 3 nM

CC(C)C[C@@H](C(N)=O)[S+]([O-])C[C@H](Cc1ccccc1)NC(=O)[C@H](Cc1c[nH]cn1)NC(=O)CNC(=O)[C@@H](NC(=O)[C@H](C)NC(=O)[C@H](Cc1c[nH]c2ccccc12)NC(=O)[C@H](CCC(N)=O)NC(=O)[C@@H]1CCC(=O)N1)C(C)C (single isomer, unassigned) [pQ Q W A V G H FΨ[CH₂S(O)]^IL#]
Kd (bombesin/GRP receptor [1]; [3]): 2 nM
